Entries after “also recorded” stand apart in the source; their conditions may differ.
How the values were obtained:
[1] = tested on: p-AKT and p-ERK in epithelial cells of pleural effusion; test: SCNP of pleural effusion, patient MCSF-06 (non-small cell lung cancer): p-Akt and p-ERK; assay type: cell-based, human
Method: A procedure similar to that shown for Example 5 was performed. A pleural effusion was obtained from a patient (MCSF-06) with a diagnosis of non-small cell lung cancer with a white cell count of 6.8 million. This example has the same Purpose as Example 5 as applied to lung cancer. The HT-1376 epithelial bladder cancer cell line served as a positive control for EGF induced signaling.
SCNP contour plots identify p-Akt and p-ERK signaling in the epithelial cell compartment only. […] EGF stimulation (5 min., 37° C.) activates the PI3K and Ras/MEK pathways which are measured by p-Akt and p-ERK respectively. […] Median fluorescent values of p-Akt and p-ERK under each treatment condition (see FIG. 5). The control cell line was processed in parallel with the patient sample.

[2] = tested on: p-AKT and p-ERK (PI3K and MAP Kinase pathways) in epithelial cells of bladder washes; test: SCNP of bladder wash samples: p-AKT and p-ERK at baseline and after EGF +/- GDC-0941; assay type: cell-based, human
Method: Bladder washes from non-cancer (NC) patients (pts) (n=8) and confirmed/suspected bladder cancer (BC) pts (n=20) were collected using standard medical practice and shipped overnight on ice for processing within 24 hours. Antibodies against CD45, Cytokeratin (CK), and EpCAM were used to differentiate epithelial cells from leukocytes, while measurements of DNA aneuploidy (DAPI stain) allowed for distinction between tumor and normal epithelial cells. Signaling activity in the PI3K and MAP Kinase pathways was assessed by measuring intracellular levels of p-AKT and p-ERK both at baseline and in response to pathway modulation. A process similar to that shown in Example 1 was used.
(§1) Upon delivery, cells were pelleted, counted, rested for 1 hr at 37° C., followed by a 5 minute stimulation with EGF or vehicle+/−GDC-0941 200 nM added 1 hr prior to EGF addition to inhibit PI3K signaling After cell fixation and permeabilization, samples were stained with fluorophore-conjugated antibodies/DAPI cocktail, and the data acquired using multi-parametric flow cytometry. The epithelial bladder carcinoma cell line HT-1376 was used as a control for the epithelial phenotype and EGF signaling. A DNA index was determined using the lymphoid population in the pt samples as a diploid G0/G1 reference.

[3] = tested on: p-AKT and p-ERK in epithelial cells of pleural effusion; test: SCNP of pleural effusion, patient MCSF-04 (non-small cell lung cancer): p-AKT and p-ERK; assay type: cell-based, human
Method: A procedure similar to that shown for Example 1 was performed. A pleural effusion was obtained from a patient (MCSF-04) with a diagnosis of non-small cell lung cancer with a white cell count of 21 million.
(§2) Purpose: (1) Evaluate ability to detect epithelial cells in the pleural effusion sample. (2) Measure DNA content to evaluate whether detected cells are possibly originating from the tumor (aneuploid). (3) measure basal level p-AKT and p-ERK signaling in epithelial cells. (4) Measure evoked signaling after EGF stimulation in the same cell populations. (5) Measure signaling inhibition when the EGF is added after incubation with a PI3K inhibitor (GDC-0941). (6) Culture cells in the presence and absence of EGF to observe possible growth promoting effects and to potentially characterize the signaling of cells that expand.
Gating Scheme: The epithelial phenotype is based on the cells being positive for EpCAM and Cytokeratin stains, while expressing low levels of CD45.
SCNP contour plots show signaling in the epithelial cell compartment only. […] EGF stimulation (5 min., 37° C.) activates the PI3K and Ras/MEK pathways which are measured by p-AKT and p-ERK respectively. Attenuation of the EGF→p-AKT induced signaling in the presence of GDC-0941.

[4] = tested on: p-AKT and p-ERK in epithelial cells of ascites fluid; test: SCNP of ascites fluid, patient MCSF-02 (biliary cancer): p-AKT and p-ERK; assay type: cell-based, human
Method: A procedure similar to that shown for Example 5 was performed. Ascites fluid was obtained from a patient (MCSF-02) with a diagnosis of biliary cancer with a white cell count of 4.3 million. This example has the same purpose as Example 5 as applied to ascites fluid.
Gating Scheme: The epithelial phenotype is based on the cells being positive for EpCAM and cytokeratin, while expressing low levels of CD45. Positive staining for cleaved PARP (c-PARP) indicates apoptosis. DNA index: The DNA index of the epithelial cells is based on the DNA content of the cells in the epithelial gate divided by the DNA content of the lymphocytes.
The biliary specimen contained 0.17% epithelial cells that were mostly non-apoptotic. This small percentage equates to ˜10 cells/condition. From this small population EGF induced p-AKT signaling was observed. A 9-fold increase in p-AKT levels were observed after […]. EGF stimulation. Induced signaling was attenuated with a 1 hour pre-incubation with 200 nM GDC-0941 (“GDC”). […] This is in contrast to the control cell line.

HT-1376 cell line = test: Control cell line HT-1376 processed with the ascites sample, EGF-induced p-Erk; assay type: cell-based; details: HT-1376 control cell line
Method: as §1
The cell line control has what appears to be a lower basal p-ERK level, however one must be careful when comparing absolute fluorescent levels between different cell types (ie, cell line vs primary cells) due to differences in autofluoresence and degree of non-specific antibody binding. […] The DNA index is near 1.0 indicating these cells are not aneuploid.

[5] = tested on: EGF signaling in epithelial cells of ascites or pleural effusion samples; test: Summary of SCNP analysis of ascites or pleural effusion samples; assay type: cell-based, human
Description: This analysis identified epithelial cells with inducible EGF signaling in ⅘ ascites or pleural effusion samples. In each of the 4 positive cases, induced signaling was inhibited by the PI3K inhibitor, GDC-0941.

HT-1376 cells = test: HT-1376 bladder cancer cells spiked into whole blood, EGF-induced pAKT and pERK; assay type: cell-based; details: HT-1376 in whole blood; 200 ng/mL EGF for 5 minutes at 37° C.
Method: A procedure similar to that shown for Example 1 was performed.
Two aliquots of 1 million cells from a bladder cancer cell line, HT-1376, were spiked into 4 mls of whole blood in an effort to determine a lower limit of detection for bladder cancer cells in blood. The epithelial cell line, HT-1376 (ATCC #CRL-1472), which has high (positive) levels of cytokeratin, low (positive) levels for EpCAM, and negative for CD45. One aliquot was preincubated with PI3K inhibitor GDC-0941 at 10 uM and another was modulated with 200 ng/mL EGF for 5 minutes at 37° C. Another aliquot of whole blood contained no HT-1376 cells or other reagents. BD phosflow fix/lyse reagent was used followed by methanol. EGF was used as a modulator to induce pAKT and pERK responses, 9.4 and 3.7 fold responses respectively.

[6] = tested on: p-AKT and p-ERK in epithelial cells of pleural effusion; test: SCNP of pleural effusion, patient MCSF-015 (non-small cell lung cancer): p-AKT and p-ERK; assay type: cell-based, human
Method: A procedure similar to that shown for Example 5 was performed. A pleural effusion was obtained from a patient (MCSF-015) with a diagnosis of non-small cell lung cancer with a white cell count of 150 million.
The HT-1376 epithelial bladder cancer cell line served as a positive control for EGF induced signaling. The control cell line was processed in parallel with the patient sample.
SCNP contour plots identify p-AKT and p-ERK signaling in the epithelial cell compartment only. […] EGF stimulation (5 min., 37° C.) activates the PI3K and Ras/MEK pathways which are measured by p-Akt and p-ERK respectively. […] Median fluorescent values of p-AKT and p-ERK under each treatment condition.

pleural effusion cells = test: Culture of pleural effusion cells (MCSF-04) in presence and absence of EGF; assay type: cell-based, human
Method: as §2
Cells in culture: 1 million cells were plated in two wells of a 24-well plate in the presence and absence of EGF. The cells visually appeared healthy after 48 hrs in culture with some cells with elongated appearance like an epithelial cells. Some very large round cells were also observed. At day 8, both cultures had adherent and non-adherent cells. Counts were performed. The well without EGF contained 400,000 viable, non-adherent cells while the well in the presence +EGF contained 800,000. The patient specimen contained 15.87% epithelial cells that were mostly non-apoptotic. The DNA index is 1.37 indicating the epithelial cells are aneuploid.

MDS patients = details: cited from earlier work

Compound: EGF: Epidermal growth factor, growth factor used as modulator to induce p-AKT and p-ERK
- EGF induction, above basal signaling, of p-Akt and p-ERK in epithelial cells ([1]; MCSF-06, EGF 5 min., 37° C.): strong
- EGF-induced p-AKT and p-ERK signaling, increase over baseline ([2]; 3/10 BC evaluable bladder wash samples, 5 minute stimulation with EGF): 2-3 fold
- EGF-induced signaling in NC specimens ([2]; non-cancer (NC) bladder wash specimens, 5 minute stimulation with EGF): no EGF-induced signaling was observed
- EGF induction of p-AKT and p-ERK in epithelial cells ([3]; MCSF-04 pleural effusion, EGF 5 min., 37° C.): strong
- EGF induction of p-AKT in epithelial cells ([4]; MCSF-02 ascites): strong
- EGF induction of p-Erk in epithelial cells ([4]; MCSF-02 ascites): no significant increase above baseline; also recorded: no p-Erk induction above baseline was detected
- increase in p-AKT levels after EGF stimulation ([4]; MCSF-02 ascites epithelial cells, 10 mins. EGF stimulation): 9 fold
- EGF induction of p-Erk in control cell line (HT-1376 cell line): observed
- samples in which epithelial cells with inducible EGF signaling were identified ([5]; ascites or pleural effusion samples): ⅘
- EGF-induced pAKT response (HT-1376 cells): 9.4 fold
- EGF-induced pERK response (HT-1376 cells): 3.7 fold
- EGF induction, above basal signaling, of p-Akt and p-ERK in epithelial cells ([6]; MCSF-015, EGF 5 min., 37° C.): strong
- viable, non-adherent cells per well at day 8 (pleural effusion cells; 1 million cells plated, 24-well plate, presence of EGF (well without EGF 400,000)): 800,000 cells
- proliferation in culture (pleural effusion cells; MCSF-04 cells, EGF induced condition): Proliferation was observed

Compound: CCOC(=O)[C@@H](N)CCC(=O)N[C@@H](CSCc1ccccc1)C(=O)N[C@@H](C(=O)OCC)c1ccccc1 [TLK-199]
- hematologic response in trial (MDS patients): hematologic improvement in all three hematopoietic lineages
- toxicities in trial (MDS patients): limited to infusion reactions, nausea, chills and bone pain

Compound: CS(=O)(=O)N1CCN(Cc2cc3nc(-c4cccc5[nH]ncc45)nc(N4CCOCC4)c3s2)CC1 [GDC-0941]
- effect on EGF-induced p-Akt signaling ([1]; MCSF-06 epithelial cells): Attenuation; also recorded: attenuated
- effect on basal p-Akt signaling ([1]; MCSF-06 epithelial cells): attenuated
- effect on p-ERK signaling ([1]; MCSF-06 epithelial cells): but not the p-ERK signaling
- prevention of EGF-induced p-AKT and p-ERK signaling ([2]; BC samples, GDC-0941 200 nM added 1 hr prior to EGF): preventable
- effect on EGF-induced p-AKT signaling ([3]; MCSF-04 epithelial cells, EGF added after incubation with GDC-0941): attenuated; also recorded: Attenuation
- effect on basal p-AKT signaling ([3]; MCSF-04 epithelial cells, GDC-0941 incubation): attenuated
- effect on basal (unstim) p-AKT level ([4]; MCSF-02, 200 nM GDC-0941): inability of the PI3K inhibitor to decrease p-AKT beyond the basal
- effect on EGF-induced p-AKT signaling ([4]; MCSF-02, 1 hour pre-incubation with 200 nM GDC-0941): attenuated
- basal p-ERK, unstimulated condition versus GDC containing sample ([4]; MCSF-02 epithelial cells): higher than the GDC containing sample
- effect on EGF-induced signaling in the positive samples ([5]; each of the 4 positive ascites or pleural effusion cases): inhibited
- effect on EGF-induced p-Akt signaling ([6]; MCSF-015 epithelial cells): Attenuation; also recorded: attenuated
- effect on basal p-Akt signaling ([6]; MCSF-015 epithelial cells): attenuated
- effect on p-ERK signaling ([6]; MCSF-015 epithelial cells): but not the p-ERK signaling

From patent US20130129681A1, “METHODS FOR DIAGNOSING SOLID TUMORS” (NODALITY, INC., priority 2011, published 2013)
